≈ marks a conversion by molar mass, not a printed value. Where two headings read alike, the source gives them in different places. Starred links: 1 amine or outer side, 2 acyl side, 3 side chain; linkers in the order of their positions; H or OH if unused. Positions of bridges follow the written chain, without caps; N, C: chain ends. Residues, ends and D or L forms follow the SMILES beside them. *: point of attachment. C20 diacid = O=C(O)CCCCCCCCCCCCCCCCCCC(=O)*; γGlu = O=C(O)[C@H](CCC(=O)[*:2])N[*:1]
Key:
[1] = target: T1, human amylin receptor (amylin 3(a) receptor: human calcitonin receptor + RAMP-3) (Homo sapiens, UniProt O60896+P30988); assay: Assay (II)a functional CRE-luciferase assay, human amylin receptor; format: cell-based; details: Table 2; BHK amylin 3(a)-receptor/CRE-luc cells
T1 construct: expressed in transfected cells; host or cells: BHK570
T1 sequence (P30988 25-474): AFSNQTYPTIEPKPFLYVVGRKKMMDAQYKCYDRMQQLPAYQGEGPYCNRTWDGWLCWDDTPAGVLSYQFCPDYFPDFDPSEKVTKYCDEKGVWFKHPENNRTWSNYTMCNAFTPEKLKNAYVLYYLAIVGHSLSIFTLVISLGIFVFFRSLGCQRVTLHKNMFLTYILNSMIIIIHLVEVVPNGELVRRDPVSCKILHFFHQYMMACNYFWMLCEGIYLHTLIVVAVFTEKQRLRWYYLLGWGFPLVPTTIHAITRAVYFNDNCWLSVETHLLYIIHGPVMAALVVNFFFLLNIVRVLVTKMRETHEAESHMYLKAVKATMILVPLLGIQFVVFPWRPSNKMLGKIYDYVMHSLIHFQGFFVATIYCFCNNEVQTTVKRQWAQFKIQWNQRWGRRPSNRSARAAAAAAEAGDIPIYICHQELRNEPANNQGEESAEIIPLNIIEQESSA
T1 sequence (O60896 24-148 partner): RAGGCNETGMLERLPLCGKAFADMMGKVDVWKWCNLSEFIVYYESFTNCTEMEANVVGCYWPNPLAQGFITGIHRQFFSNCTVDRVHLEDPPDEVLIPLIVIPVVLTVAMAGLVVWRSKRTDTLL

[2] = target: T2, human calcitonin receptor (Homo sapiens, UniProt P30988); assay: Assay (II)a functional CRE-luciferase assay, human calcitonin receptor; format: cell-based
T2 construct: expressed in transfected cells; host or cells: BHK570
T2 sequence (P30988 25-474): T1 sequence (P30988 25-474)

[3] = Assay (III) ThT fibrillation assay for physical stability; format: physicochemical
Outline: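 Freshly prepared formulations, pH-adjusted, with 1 μM ThT; four or eight replicates incubated at 37 °C under 960 rpm orbital shaking. Fluorescence (ex 444/em 485 nm) read every 20 min; […]. Peptide concentration measured by RP-HPLC before and after the run.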

[4] = Assay (IV) determination of solubility; format: physicochemical
Outline: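 Polypeptide in water (~500 nmol/ml) mixed 1:1 with 100 mM glycylglycine (pH 3.0–5.0) or bistrispropane (pH 6.0–8.0) buffers. Held 18 hours at room temperature, then centrifuged. Polypeptide remaining in solution quantified by HPLC.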

[5] = Table 7, human calcitonin (CTa) receptor
[6] = bistrispropane buffer, pH 6, pH 6.0, read-out: Solubility pH 6.0
[7] = bistrispropane buffer, pH 6.5, pH 6.5, read-out: Solubility pH 6.5
[8] = bistrispropane buffer, pH 7, pH 7.0, read-out: Solubility pH 7.0
[9] = bistrispropane buffer, pH 7.5, pH 7.5, read-out: Solubility pH 7.5
[10] = bistrispropane buffer, pH 8, pH 8.0, read-out: Solubility pH 8.0
[11] = glycylglycine buffer, pH 3, pH 3.0, read-out: Solubility pH 3.0
[12] = glycylglycine buffer, pH 4, pH 4.0, 18 hours at room temperature, Table 2, read-out: Solubility pH 4.0
[13] = glycylglycine buffer, pH 4, pH 4.0, read-out: Solubility pH 4.0
[14] = glycylglycine buffer, pH 5, pH 5.0, read-out: Solubility pH 5.0

Row | EC50 [1] [pM] | ThT pH 4.0 lag time (h) ([3]; ThT fibrillation assay) | solubility at 18 h [4, 6] [µM] | solubility at 18 h [4, 7] [µM] | solubility at 18 h [4, 8] [µM] | solubility at 18 h [4, 9] [µM] | solubility at 18 h [4, 10] [µM] | solubility at 18 h [4, 11] [µM] | solubility at 18 h [4, 12] [µM] | solubility at 18 h [4, 13] [µM] | solubility at 18 h [4, 14] [µM] | Compound | EC50 [2, 5] [pM] | ThT pH 4.0 lag time ([3]; ThT fibrillation assay) [h] | other results
1 | 402 | 0 | 1 (≈ 4.71 µg/mL) | 1 (≈ 4.71 µg/mL) | 1 (≈ 4.71 µg/mL) | 1 (≈ 4.71 µg/mL) | 4 (≈ 18.9 µg/mL) | > 200 | 118 (≈ 556 µg/mL) | 118 (≈ 556 µg/mL) | 1 (≈ 4.71 µg/mL) | CC[C@H](C)[C@H](NC(=O)[C@@H]1CCCN1C(=O)CNC(=O)[C@H](Cc1ccccc1)NC(=O)[C@H](CC(N)=O)NC(=O)[C@H](CC(N)=O)NC(=O)[C@H](CO)NC(=O)[C@H](CO)NC(=O)[C@H](Cc1c[nH]cn1)NC(=O)[C@H](Cc1c[nH]cn1)NC(=O)[C@H](CC(C)C)NC(=O)[C@H](Cc1ccccc1)NC(=O)[C@H](CCC(=O)O)NC(=O)[C@H](C)NC(=O)[C@H](CC(C)C)NC(=O)[C@H](CCCNC(=N)N)NC(=O)[C@H](CCC(N)=O)NC(=O)[C@@H](NC(=O)[C@H](C)NC(=O)[C@@H]1CSSC[C@H](NC(=O)[C@H](CCCCN)NC(=O)[C@H](CCC(=O)O)NC(=O)[C@H](CCC(=O)O)NC(=O)CC[C@H](NC(=O)CCCCCCCCCCCCCCCCCCC(=O)O)C(=O)O)C(=O)N[C@@H](CC(N)=O)C(=O)N[C@@H]([C@@H](C)O)C(=O)N[C@@H](C)C(=O)N[C@@H]([C@@H](C)O)C(=O)N1)[C@@H](C)O)C(=O)N[C@@H](CC(C)C)C(=O)N1CCC[C@H]1C(=O)N1CCC[C@H]1C(=O)N[C@H](C(=O)N[C@@H](CC(N)=O)C(=O)N[C@H](C(=O)NCC(=O)N[C@@H](CO)C(=O)N[C@@H](CC(N)=O)C(=O)N[C@H](C(=O)N[C@@H](Cc1ccc(O)cc1)C(N)=O)[C@@H](C)O)C(C)C)[C@@H](C)O [Example 41, N-alpha-[(S)-4-Carboxy-4-(19-carboxynonadecanoylamino)butyryl]-Glu-Glu-[Glu14,His17]-pramlintide] ({C20 diacid-γGlu}-EEKCNTATCATQRLAEFLHHSSNNFGPILPPTNVGSNTY-NH2; disulfide 4-9 (inferred)) | 798 | – | –
2 | 411 | >45 | > 200 | > 200 | > 200 | > 200 | > 200 | > 200 | > 200 | > 200 | > 200 | CC[C@H](C)[C@H](NC(=O)[C@@H]1CCCN1C(=O)CNC(=O)[C@H](Cc1ccccc1)NC(=O)[C@H](CC(N)=O)NC(=O)[C@H](CCC(N)=O)NC(=O)[C@H](CO)NC(=O)[C@H](CO)NC(=O)[C@H](Cc1c[nH]cn1)NC(=O)[C@H](CCCNC(=N)N)NC(=O)[C@H](CC(C)C)NC(=O)[C@H](Cc1ccccc1)NC(=O)[C@H](CCC(=O)O)NC(=O)[C@H](C)NC(=O)[C@H](CC(C)C)NC(=O)[C@H](CCCNC(=N)N)NC(=O)[C@H](CCC(N)=O)NC(=O)[C@@H](NC(=O)[C@H](C)NC(=O)[C@@H]1CSSC[C@H](NC(=O)[C@H](CCC(=O)O)NC(=O)[C@H](CCCNC(=N)N)NC(=O)[C@H](CCC(=O)O)NC(=O)CC[C@H](NC(=O)CCCCCCCCCCCCCCCCCCC(=O)O)C(=O)O)C(=O)N[C@@H](CC(N)=O)C(=O)N[C@@H]([C@@H](C)O)C(=O)N[C@@H](C)C(=O)N[C@@H]([C@@H](C)O)C(=O)N1)[C@@H](C)O)C(=O)N[C@@H](CC(C)C)C(=O)N1CCC[C@H]1C(=O)N1CCC[C@H]1C(=O)N[C@H](C(=O)N[C@@H](CC(N)=O)C(=O)N[C@H](C(=O)NCC(=O)N[C@@H](CO)C(=O)N[C@@H](CCC(N)=O)C(=O)N[C@H](C(=O)N1CCC[C@H]1C(N)=O)[C@@H](C)O)C(C)C)[C@@H](C)O [Example 162, N-alpha-[(S)-4-Carboxy-4-(19-carboxynonadecanoylamino)butyryl]-Glu-Arg-[Glu1,Glu14,Arg17,Gln21,Gln35,Pro37]-pramlintide] ({C20 diacid-γGlu}-ERECNTATCATQRLAEFLRHSSQNFGPILPPTNVGSQTP-NH2; disulfide 4-9) | – | >45 | EC50 ([2]; Table 11, read-out: CTa receptor human EC50): 2200 pM; ThT pH 4.0 lag time ([3]; Table 8): >45 h; ThT pH 4.0 lag time ([3]; Table 9): >45 h; solubility at 18 h ([4]; bistrispropane buffer, pH 7, pH 7.0, 18 hours at room temperature, Table 3, read-out: Solubility pH 7.0): > 200 µM; solubility at 18 h ([4]; bistrispropane buffer, pH 7, pH 7.0, Table 8, read-out: Solubility pH 7.0): > 200 µM; solubility at 18 h ([4]; bistrispropane buffer, pH 7, pH 7.0, Table 9, read-out: Solubility pH 7.0): > 200 µM; solubility at 18 h ([4]; bistrispropane buffer, pH 7.5, pH 7.5, Table 9, read-out: Solubility pH 7.5): > 200 µM

Row | Compound | EC50 [1] [pM] | ThT pH 4.0 lag time (h) ([3]; ThT fibrillation assay) | solubility at 18 h [4, 6] [µM] | solubility at 18 h [4, 7] [µM] | solubility at 18 h [4, 8] [µM] | solubility at 18 h [4, 9] [µM] | solubility at 18 h [4, 10] [µM] | solubility at 18 h [4, 11] [µM] | solubility at 18 h [4, 12] [µM] | solubility at 18 h [4, 13] [µM] | solubility at 18 h [4, 14] [µM] | EC50 [2, 5] [pM] | ThT pH 4.0 lag time ([3]; ThT fibrillation assay) [h] | other results
3 | CC[C@H](C)[C@H](NC(=O)[C@@H]1CCCN1C(=O)CNC(=O)[C@H](Cc1ccccc1)NC(=O)[C@H](CC(N)=O)NC(=O)[C@H](CC(=O)O)NC(=O)[C@H](CO)NC(=O)[C@H](CO)NC(=O)[C@H](Cc1c[nH]cn1)NC(=O)[C@H](Cc1c[nH]cn1)NC(=O)[C@H](CC(C)C)NC(=O)[C@H](Cc1ccccc1)NC(=O)[C@H](CCC(=O)O)NC(=O)[C@H](C)NC(=O)[C@H](CC(C)C)NC(=O)[C@H](CCCNC(=N)N)NC(=O)[C@H](CCC(N)=O)NC(=O)[C@@H](NC(=O)[C@H](C)NC(=O)[C@@H]1CSSC[C@H](NC(=O)[C@H](CCCCN)NC(=O)CC[C@H](NC(=O)CCCCCCCCCCCCCCCCCCC(=O)O)C(=O)O)C(=O)N[C@@H](CC(N)=O)C(=O)N[C@@H]([C@@H](C)O)C(=O)N[C@@H](C)C(=O)N[C@@H]([C@@H](C)O)C(=O)N1)[C@@H](C)O)C(=O)N[C@@H](CC(C)C)C(=O)N1CCC[C@H]1C(=O)N1CCC[C@H]1C(=O)N[C@H](C(=O)N[C@@H](CC(N)=O)C(=O)N[C@H](C(=O)NCC(=O)N[C@@H](CO)C(=O)N[C@@H](Cc1c[nH]cn1)C(=O)N[C@H](C(=O)N[C@@H](Cc1ccc(O)cc1)C(N)=O)[C@@H](C)O)C(C)C)[C@@H](C)O [Example 128, N-alpha-[(S)-4-Carboxy-4-(19-carboxynonadecanoylamino)butyryl]-[Glu14,His17,Asp21,His35]-pramlintide] ({C20 diacid-γGlu}-KCNTATCATQRLAEFLHHSSDNFGPILPPTNVGSHTY-NH2; disulfide 2-7 (inferred); C-terminus assumed) | 291 | >45 | – | – | – | – | – | – | – | – | – | 266 | >45 | solubility at 18 h ([4]; pH 3.0, read-out: Solubility pH 3.0): > 200 µM; solubility at 18 h ([4]; pH 4.0, 18 hours at room temperature, Table 2, read-out: Solubility pH 4.0): > 200 µM; solubility at 18 h ([4]; pH 4.0, read-out: Solubility pH 4.0): >200 µM; solubility at 18 h ([4]; pH 5.0, read-out: Solubility pH 5.0): > 200 µM; solubility at 18 h ([4]; pH 6.0, read-out: Solubility pH 6.0): > 200 µM; solubility at 18 h ([4]; pH 6.5, read-out: Solubility pH 6.5): 114 µM (≈ 511 µg/mL); solubility at 18 h ([4]; pH 7.0, 18 hours at room temperature, Table 3, read-out: Solubility pH 7.0): 140 µM (≈ 627 µg/mL); solubility at 18 h ([4]; pH 7.0, read-out: Solubility pH 7.0): 140 µM (≈ 627 µg/mL); solubility at 18 h ([4]; pH 7.5, read-out: Solubility pH 7.5): > 200 µM; solubility at 18 h ([4]; pH 8.0, read-out: Solubility pH 8.0): > 200 µM

— US8722849B2, “Polypeptides” (Novo Nordisk A/S, priority 2011, dated 2014)
